Data taken from patent publication US4698347A, “Octahydro-oxazolo[4,5-g]quinolines derivatives and decahydro quinoline intermediates and their use as dopamine D-2 agonists” (Eli Lilly and Company, priority 1986, dated 1987).
“And” between values parts separate entries of the source, which are not always exact repeats. Equal entries are not always repeated.

Assays:
[1] = tested on: spontaneously hypertensive rats (SHR); test: Blood pressure and heart rate in anesthetized spontaneously hypertensive rats (SHR), i.v.; assay type: in vivo, rat; conditions: for % change in BP (mean arterial blood pressure ± standard error) / % change in heart rate (± standard error): four rats
Description: The compounds of this invention I, and III are effective in the treatment of hypertension.
Adult male spontaneously hypertensive rats (SHR) (Taconic Farms, Germantown, N.Y.), weighing approximately 300 g. were anesthetized with pentobarbital sodium (60 mg./kg., i.p.). The trachea was cannulated and SHR respired room air. Pulsatile arterial blood pressure was measured from a cannulated carotid artery using a Statham transducer (P23 ID). Mean arterial blood pressure was calculated as diastolic blood pressure plus 1/3 pulse pressure. Cardiac rate was monitored by a cardiotachometer which was triggered by the systolic pressure pulse. Drug solutions were administered i.v. through a catheter placed in a femoral vein. Arterial blood pressure and cardiac rate were recorded on a multichannel oscillograph (Beckman, Model R511A). Fifteen minutes were allowed to elapse following surgery for equilibration of the preparation.
In the table, column 1 gives the name of the drug, column 2 dose in μg/kg, column 3 percent change in mean arterial blood pressure plus or minus standard error and column 4, percent change in heart rate plus or minus standard error. Four rats were used at each dose level.

[2] = tested on: apomorphine binding sites; test: Inhibition of 3H-apomorphine binding (vs spiperone sites); conditions: printed as 40 to 1
Source text: With trans-(±)-2-methyl-5-n-propyl-4,4a,5,6,7,8,8a,9-octahydrooxazolo[4,5-g]quinoline; the ratio of binding, to apomorphine sites vs spiperone sites is 40 to 1.

Structure (SMILES) | % change in BP (mean arterial blood pressure ± standard error) ([1]; dose 0.1 μg/kg) [%] | % change in heart rate (± standard error) ([1]; dose 0.1 μg/kg) [%] | % change in BP (mean arterial blood pressure ± standard error) ([1]; dose 1 μg/kg) [%] | % change in heart rate (± standard error) ([1]; dose 1 μg/kg) [%] | % change in BP (mean arterial blood pressure ± standard error) ([1]; dose 10 μg/kg) [%] | % change in heart rate (± standard error) ([1]; dose 10 μg/kg) [%] | Duration of change in BP ([1]; dose 100 μg/kg) | % change in heart rate (± standard error) ([1]; dose 100 μg/kg) | % change in BP (mean arterial blood pressure ± standard error) ([1]; dose 100 μg/kg) [%] | Duration of change in BP ([1]; dose 1000 μg/kg) | % change in BP (mean arterial blood pressure ± standard error) ([1]; dose 1000 μg/kg) [%] | % change in heart rate (± standard error) ([1]; dose 1000 μg/kg) [%] | ratio of binding, to apomorphine sites vs spiperone sites [2]
CCCN1CCC[C@H]2Cc3nc(N)oc3C[C@@H]21 (racemic) [Trans-(±)-2-amino-5-n-propyl-4,4a,5,6,7,8,8a,9-octahydro-oxazolo[4,5-g]quinoline] | -18.3 ± 5.7 | -8.5 ± 2.2 | -8.6 ± 1.6 | -4.4 ± 0.9 | -15.1 ± 1.1 | -5.6 ± 0.7 | * (Duration of 15 min or greater) | -17.5 ± 2.3% and -19.1 ± 3.4% |  |  |  |  | 
CCCN1CCC[C@H]2Cc3nc(C)oc3C[C@@H]21 (racemic) [Trans-(±)-2-methyl-5-n-propyl-4,4a,5,6,7,8,8a,9-octahydro-oxazolo[4,5-g]quinoline] |  |  | -3.2 ± 0.5 | -2.4 ± 0.8 | -7.0 ± 1.0 | -2.8 ± 0.4 | * (Duration of 15 min or greater) | -16.1 ± 7.6% | -19.6 ± 1.4 | * (Duration of 15 min or greater) | -26.2 ± 4.3 | -23.6 ± 4.4 | 40
CCCN1CCC[C@H]2Cc3ncoc3C[C@@H]21 (racemic) [trans-(±)-5-n-propyl-4,4a,5,6,7,8,8a,9-octahydro-oxazolo[4,5-g]quinoline] |  |  | -5.0 ± 1.2 | -3.6 ± 0.5 | -10.2 ± 1.0 | -4.6 ± 0.6 | * (Duration of 15 min or greater) | -28.5 ± 2.6% | -27.4 ± 20 | * (Duration of 15 min or greater) | -37.7 ± 4.9 | -31.8 ± 3.7 | 
